Measured values reported in US9132131B2, “Use of adenosine A3 receptor agonists for treatment of neuropathic pain” (Saint Louis University, priority 2011, dated 2015).
“And” between values parts separate entries of the source, which are not always exact repeats. Identical values can stand only once. Like-named read-outs stand apart in the source and are kept apart here.

Key:
[1] = tested on: CCI of the sciatic nerve (mechano-allodynia); test: CCI model of neuropathic pain, mechano-allodynia (von Frey PWT); format: in vivo, mice; conditions: for effect of antagonist pretreatment on anti-allodynic effect of CI-IB-MECA or MRS1898: 15 min before CI-IB-MECA 0.6 or MRS1898 0.5 μmol/kg, DPCPX and SCH-442416 with MRS1898 only; for effect of antagonist pretreatment on anti-allodynic effect of IB-MECA: 15 min before IB-MECA 0.5 μmol/kg, MRS1523 5, DPCPX 2, SCH-442416 0.2 μmol/kg; for effect of antagonist given alone on ipsilateral or contralateral PWT: MRS1523 5, DPCPX 2, SCH-442416 0.2, naloxone 25 μmol/kg; for efficacy of IB-MECA compared with this drug: D7, time of peak reversal (FIG. 7); for ED50: Mus musculus, read-out: ED50, reversal of mechano-allodynia; for time of maximal reversal of mechano-allodynia: after single administration on D7; for ED50 at peak reversal of mechano-allodynia when combined with IB-MECA: co-administered with IB-MECA 0.2 μmol/kg; for fold less potent than IB-MECA in reversing mechano-allodynia: ratio of ED50 values, D7, time of peak reversal; for reversal of mechano-allodynia in ipsilateral paws: single dose D7, IB-MECA 0.2-2, CI-IB-MECA 0.6, MRS1898 0.5 μmol/kg i.p., morphine 0.11-35 s.c., gabapentin 18-584 i.p., amitriptyline 3-191 μmol/kg oral
Experimental: CCI model of neuropathic pain. CCI to the sciatic nerve of the left hind leg in mice was performed under general anaesthesia using the well-characterized Bennett model. Briefly, mice (weighing 25-30 g at the time of surgery) were anesthetized with 3% isoflurane/100% O2 inhalation and maintained on 2% isoflurane/100% O2 for the duration of surgery. The left thigh was shaved, scrubbed with Nolvasan® and a small incision (1-1.5 cm in length) was made in the middle of the lateral aspect of the left thigh to expose the sciatic nerve. The nerve was loosely ligated around the entire diameter of the nerve at three distinct sites (spaced 1 mm apart) using silk sutures (6.0). The surgical site was closed with a single muscle suture and a skin clip. Pilot studies established that under our experimental conditions peak mechano-allodynia develops by day 5-day 7 (D5-D7) following CCI. Test substances or their vehicles were given subcutaneously (s.c.), intraperitoneally (i.p.) or orally by gavage (0.1 ml) at peak mechano-allodynia (D7).
Behavioral testing. […] The plantar aspect of hindpaws were probed three times with calibrated von Frey filaments (Stoelting, mice: 0.07-2.00 grams; rats: 0.407-26 grams) according to the “up-and-down” method. […] Briefly, each rat was placed in a Plexiglas chamber (28×40×35-cm, wire mesh floor) and after its acclimation, a servo-controlled mechanical stimulus was applied to the plantar surface that exerted a progressively increasing punctate pressure up to 50 grams within 10 seconds. Mechanical threshold was assessed three times at each time point to yield a mean value, reported as PWT (grams). […] Mechano-hyperalgesia was assessed in rats by the Randall and Sellitto paw pressure test using an analgesiometer (Ugo Basile). The nociceptive threshold was defined as the force (grams) at which the rat withdrew its paw (cut off set at 250 grams).
Determining ED50 values. Dose response data were curve-fitted using the least sum of square method by a normalized 4-parameter, variable slope non-linear analysis of the % Reversal of Mechano-allodynia in CCI and % Prevention of Mechano-allodynia or Mechano-hyperalgesia in CIPN using GraphPad Prism (Release 5.03, GraphPad Software, Inc.) from which the ED50 was determined and reported with the 95% confidence interval (95% CI). In the CCI model, the % Reversal of Mechano-allodynia=(PWT1h−PWTD7)/(PWTD0−PWTD7)×100, where PWTD0=Paw Withdrawal Threshold (g) at D0, PWT1h=Paw Withdrawal Threshold (g) at 1 hour after the administration of IB-MECA, gabapentin, amitriptyline, or combinations of IB-MECA with gabapentin or amitriptyline, and PWTD7=Paw Withdrawal Threshold (grams) at D7 prior to drug administration.
Statistical Analysis. Data are expressed as mean±SD for n animals. Behavioral data were analyzed by two-way repeated measures ANOVA with Bonferroni comparisons (full time course studies) or one-way ANOVA Dunnett's comparisons (1 hour behavioral data). The dose response curves were compared to a globally fitted curve using the extra sum-of-squares F-test comparisons to determine whether the data represented distinct curves between treatments. Significant differences were defined at a P<0.05. All statistical analysis was performed using GraphPad Prism (v5.03, GraphPad Software, Inc.).

[2] = tested on: paclitaxel-induced neuropathic pain; test: Paclitaxel-induced neuropathic pain (mechano-allodynia, mechano-hyperalgesia); format: in vivo, rats
[3] = tested on: A3ARs; conditions: cited from earlier work
[4] = tested on: SKBR3 breast cancer cells; test: MTT cell survival assay, SKBR3; format: cell-based, human; conditions: 48 hours, MTT, SKBR3
Experimental: Cells were cultured and assayed in DMEM (SKBR3; human breast cancer cells), L15 (SW480; human colon cancer cells) or RPMI […] (RPMI 8226; human multiple myeloma cells) supplemented with heat-denatured 10% FBS and penicillin/streptomycin at 37° C., 0% (SW480) or 5% CO2 (SKBR3 and RPMI 8226), 95% humidity. The antitumor activities of these agents were measured in cells (6.25×10^4 cells/well) cultured overnight in 24-well plates (SKBR3 and SW480; BD Biosciences) or 12 mm×7.5 mm culture tubes (RPMI 8226; BD Biosciences) in complete media. […] Two naïve control wells were included as a control for 100% survival. Cell survival was determined using a MTT (3-(4,5-dimethylthiazol-2-yl)-2,5-diphenyltetrazolium bromide) assay adapted from a previously described assay. Cells were incubated with MTT (500 μg/ml) for 75 minutes at 37° C., 0% or 5% CO2, 95% humidity, removing the media and dissolving the tetrazolium crystals in isopropanol. […] The antitumor effects of IB-MECA alone were determined as % Survivability=(A560-570 nm of chemotherapeutic vehicle+IB-MECA)/(mean A560-570 nm of the naïve control wells)×100. The LD50 of each chemotherapeutic agent+IB-MECA or its vehicle was calculated using three-parameter non-linear analysis using % Survivability=(A560-570 nm of chemotherapeutic+IB-MECA or its vehicle)/(mean A560-570 nm chemotherapeutic vehicle+vehicle of IB-MECA)×100. The top and bottom plateaus were constrained using GraphPad Prism v5.03 (GraphPad Software, Inc.).

[5] = tested on: acute nociception (tail flick latency); test: Tail flick assay for acute nociception; format: in vivo, mice; conditions: IB-MECA, MRS1898 0.5 μmol/kg i.p. at 30, 60, 120 minutes; morphine 35 μmol/kg s.c. positive control
Experimental: Tail flick and hot plate assay in mice for acute nociception. The tail flick test, which measures latency(s) of tail withdrawal from a noxious radiant heat source (Ugo Basile; model number 37360) was used to measure thermal nociceptive sensitivity in mice with baseline latencies of 3-5 seconds and a cut-off time of 15 seconds to prevent tissue injury. Tail flick latencies were taken before and at 30, 60 and 120 minutes after i.p. injection of IB-MECA, MRS1898 (0.5 μmol/kg) or its vehicle (0.1% DMSO in saline). For the hot plate test, nociceptive thresholds were determined as previously reported by our group by measuring latencies (in seconds) of mice placed in a transparent glass cylinder on a hot plate maintained at 52° C.. Responses indicative of nociception included intermittent lifting and/or licking of the hindpaws or escape behavior. Hot plate latencies were taken in mice from all groups before and after drug administration. A cut-off latency of 15 seconds was employed to prevent tissue damage.

[6] = cited from earlier work
[7] = co-administered IB-MECA 0.2 μmol/kg, D7

CCCOC(=O)c1c(-c2ccccc2)nc(CC)c(C(=O)SCC)c1CCC [MRS1523, 3-propyl-6-ethyl-5[(ethylthio)carbonyl]-2-phenyl-4-propyl-3-pyridine-carboxylate]
effect of antagonist pretreatment on anti-allodynic effect of CI-IB-MECA or MRS1898 [1]: blocked
effect of antagonist pretreatment on anti-allodynic effect of IB-MECA [1]: prevented
effect of antagonist given alone on ipsilateral or contralateral PWT ([1]; D7): lacked effect
effect on PWT when administered alone (vehicle groups) ([2]; IB-MECA 0.2 μmol/kg/d in any of the chemotherapy models, MRS1523 5 μmol/kg/d): lacked effect
effect of co-administered antagonist on the effects of IB-MECA ([2]; MRS1523 5 μmol/kg/d with IB-MECA 0.2 μmol/kg/d): prevented
selectivity against A1AR [3]: moderate selectivity
selectivity against A2AAR and A2BAR [3]: at least 1000 fold
binding to A3ARs ([3]; murine and rat): high affinity

NCC1(CC(=O)O)CCCCC1 [gabapentin, 2-[1-(aminomethyl)cyclohexyl]acetic acid]
efficacy of IB-MECA compared with this drug [1]: equiefficacious
effect on PWT in contralateral paws ([1]; D7 after CCI, drug alone): had no effect
ED50 [1]: 140 µmol/kg
time of maximal reversal of mechano-allodynia [1]: 1 h
increase of potency by IB-MECA [1, 7]: > 5 fold
ED50 at peak reversal of mechano-allodynia when combined with IB-MECA ([1]; mice, D7 after CCI): 27 µmol/kg
fold less potent than IB-MECA in reversing mechano-allodynia [1]: > 350 fold
reversal of mechano-allodynia in ipsilateral paws [1]: dose-dependent reversal of mechano-allodynia

COc1ccc(CCCn2ncc3c2nc(N)n2nc(-c4ccco4)nc32)cc1 [SCH-442416, 2-(2-furanyl)-7-[3-(4-methoxyphenyl)propyl]-7Hpyrazolo[4,3-e][1,2,4]triazolo[1,5-C]pyrimidin-5-amine]
effect of antagonist pretreatment on anti-allodynic effect of CI-IB-MECA or MRS1898 [1]: did not prevent
effect of antagonist pretreatment on anti-allodynic effect of IB-MECA [1]: not affected
effect of antagonist given alone on ipsilateral or contralateral PWT ([1]; D7): lacked effect

C=CCN1CC[C@]23c4c5ccc(O)c4O[C@H]2C(=O)CC[C@@]3(O)[C@H]1C5 [naloxone]
effect of antagonist given alone on ipsilateral or contralateral PWT ([1]; D7): did not affect
effect of naloxone on reversal of mechano-allodynia by A3AR agonists ([1]; naloxone 25 μmol/kg i.p. 15 minutes before IB-MECA or MRS1898 0.5 μmol/kg): did not interfere

CC(=O)O[C@H]1C(=O)[C@@]2(C)[C@H]([C@H](OC(=O)c3ccccc3)[C@]3(O)C[C@H](OC(=O)[C@H](O)[C@@H](NC(=O)c4ccccc4)c4ccccc4)C(C)=C1C3(C)C)[C@]1(OC(C)=O)CO[C@@H]1C[C@@H]2O [Paclitaxel]
LD50 [4]: 7.0 nM

CN1CC[C@]23c4c5ccc(O)c4O[C@H]2[C@@H](O)C=C[C@H]3[C@H]1C5 [morphine]
efficacy of IB-MECA compared with this drug [1]: more efficacious
effect on PWT in contralateral paws ([1]; D7 after CCI, drug alone): not in contralateral paws
ED50 [1]: 2.1 µmol/kg
time of maximal reversal of mechano-allodynia [1]: 0.5 h
enhancement of efficacy by IB-MECA [1, 7]: 1.6 fold
increase of potency by IB-MECA [1, 7]: > 2 fold
Emax, reversal of mechano-allodynia ([1]; mice, D7 after CCI, drug alone): 62±3%
ED50 at peak reversal of mechano-allodynia when combined with IB-MECA ([1]; mice, D7 after CCI): 0.98 µmol/kg
fold less potent than IB-MECA in reversing mechano-allodynia [1]: > 5 fold and 5 fold
reversal of mechano-allodynia in ipsilateral paws [1]: dose-dependent reversal of mechano-allodynia
effect on tail flick latency [5]: significant (P<0.001) increase in tail flick latencies

N.N.[Cl][Pt][Cl] [cisplatin]
incidence of CIPN ([6]; in vivo): 70-90%

N.N.O=C([O-])C1(C(=O)[O-])CCC1.[Pt+2] [carboplatin]
incidence of CIPN ([6]; subjects receiving the drug): 40%

CN(C)CCC=C1c2ccccc2CCc2ccccc21 [amitriptyline]
efficacy of IB-MECA compared with this drug [1]: equiefficacious
effect on PWT in contralateral paws ([1]; D7 after CCI, drug alone): had no effect
ED50 [1]: 31 µmol/kg
time of maximal reversal of mechano-allodynia [1]: 1 h
increase of potency by IB-MECA [1, 7]: 2 fold
ED50 at peak reversal of mechano-allodynia when combined with IB-MECA ([1]; mice, D7 after CCI): 13 µmol/kg
fold less potent than IB-MECA in reversing mechano-allodynia [1]: > 75 fold and 75 fold
reversal of mechano-allodynia in ipsilateral paws [1]: dose-dependent reversal of mechano-allodynia

CCCn1c(=O)c2[nH]c(C3CCCC3)nc2n(CCC)c1=O [DPCPX, 8-cyclopentyl-1,3-dipropylxanthine]
effect of antagonist pretreatment on anti-allodynic effect of CI-IB-MECA or MRS1898 [1]: did not prevent
effect of antagonist pretreatment on anti-allodynic effect of IB-MECA [1]: not affected
effect of antagonist given alone on ipsilateral or contralateral PWT ([1]; D7): lacked effect

CNC(=O)[C@H]1O[C@@H](n2cnc3c(NCc4cccc(I)c4)nc(Cl)nc32)[C@H](O)[C@@H]1O [CI-IB-MECA, 2-chloro-N^6-(3-iodobenzyl)-adenosine-5′-N-methyluronamide]
effect on PWT in contralateral paws ([1]; D7 after CCI, drug alone): had no effect
reversal of mechano-allodynia in ipsilateral paws [1]: reversed mechano-allodynia
effect on paclitaxel-induced neuropathic pain ([2]; 0.2 μmol/kg/d (not shown)): completely blocked

CC(=O)O[C@@]12CO[C@@H]1C[C@H](O)[C@@]1(C)C(=O)[C@H](O)C3=C(C)[C@@H](OC(=O)[C@H](O)[C@@H](NC(=O)OC(C)(C)C)c4ccccc4)C[C@@](O)([C@@H](OC(=O)c4ccccc4)[C@H]21)C3(C)C [docetaxel]
incidence of CIPN ([6]; subjects receiving the drug): 60%
